Data: patent US6979665B2, “Agent for stimulation of the natural defences of plants and methods for using it” (Laboratoires Goemar S.A., priority 2002, dated 2005)
Entries after “also recorded” stand apart in the source; their conditions may differ.

Key:
[1] = system: cellular suspension of Nicotiana tabacum cv. Bright Yellow; test: Alkalinisation test of the extracellular medium on cellular suspension; format: cell-based; conditions: after 10 minutes; 160 μl of 10 g/l composition added to 8 ml suspension, final concentration about 200 mg/l
Experimental: The cellular suspensions here above mentioned are suspensions obtained starting from the vegetal tissue of Nicotiana tabacum cv. Bright Yellow.
One of these experiences is consisting of the so-called alkalinisation test of the extracellular medium and the other of the so-called test of the refractory state.
In the case of the first test, the latter is carried out on a cellular suspension obtained starting from vegetable tissues of the variety Bright Yellow. To three 8 ml samples of that cellular suspension were added respectively 160 μl of three aqueous compositions respectively containing 10 g/l of the fractions H11-C1, I25 (oligofucanes) and H11-S, the final concentration in each of the oligosaccharides being equal to […].

[2] = system: signalisation pathways of salicic acid and of ethylene; test: Complementary experiences on signalisation pathways; format: in vivo
scopoletin = test: Accumulation of total scopoletin in infiltrated tissues; format: in vivo, Nicotiana tabacum; conditions: variety Bel3, tissues sampled 3 days after infiltration (FIG. 6)
From the text: (§1) The stimulation, after infiltration with the here above defined compositions H11-C and H11-S of the accumulation of salicylic acid and of scopoletin in the varieties NN and Bel3 was then examined.
(§2) The results of these experiences appear on FIGS. 5 and 6, which respectively show the accumulation—expressed in μg respectively of salicylic acid and of scopoletin per gram of infiltrated tissues—of the total salicylic acid (free and conjugated forms) and of the total scopoletin (free and conjugated forms) determined on tissues on the varieties NN and Bel3 infiltrated as indicated here above on the one hand with water (C) as a control and on the other hand with compositions based on the fractions H11-C1 and H11-S containing respectively 200 mg/l of these fractions, the infiltrated tissues being sampled 3 days after the infiltration treatment.

[3] = system: tobacco plants of the varieties NN and Bel3; test: Symptoms of leaf tissues after infiltration into the mesophyl (depigmentation/chlorosis, fluorescence under UV light); format: in vivo, Nicotiana tabacum
Experimental: The treatment has been applied on the one hand to the whole plants and on the other hand to cellular suspensions, the varieties of the plants used being: • the variety Nicotiana tabacum cv. Samsun NN designated by NN • the variety Nicotiana tabacum cv. Bel3 designated by Bel3
First, the plants of the varieties NN and Bel 3 as such were treated using aqueous compositions comprising respectively the fractions H11-C1 and H11-S at the concentration of 200 mg/l, which is, as indicated hereabove, the optimum dosis for the elicitor activity of unsulfated glucans.
The treatment consists in the infiltration of the above said aqueous compositions based on the fractions H11-C1 and H11-S into the mesophyl of the leaves of the treated plants.
The infiltration is carried out by piercing tobacco leaves using a needle and by applying then perpendicularly with respect to the plane of the leave a syringe containing the solution to be injected. Immediately after the injection, the infiltration zone, visible by illumination of the leave from its lower face, is delimitated using a felt type pen. The infiltrated zone is designated by ZI.
(§3) In another line of tests or experiences, the varieties NN and Bel3 have been treated with inducing compositions presenting respectively the concentrations of 0.5 and then of 5, of 20, of 50, of 200 and of 1,000 mg/l in H11-S and H11-C2 and the expression of the PR1 and PR2 acidic proteins in the case of the said varieties NN and Bel3 have been analysed.

[4] = system: PR proteins (families PR1, PR2, PR3 and PR5, acidic and alkaline isoforms); test: Expression of PR proteins in infiltrated tobacco leaves by immunodetection; format: in vivo, Nicotiana tabacum
Experimental: Concerning the PR proteins, the expression of the acidic and of the alkaline isoforms of 4 families of these proteins, i.e. the families PR1, PR2, PR3 and PR5 has been analysed in the case of tobacco plants of the varieties NN and Bel3 infiltrated with compositions based on the fractions H11-C1 and H11-S at a concentration of 200 mg/l.
The analysis of these proteins has been carried out by immunodetection as disclosed in the publication in the name of Costet L., Dorey S., Fritig B. and Kauffmann S., published under the title: • “A pharmacological approach to test the diffusible signal activity of reactive oxygen intermediates in elicitor-treated tobacco leaves”, in Plant Cell and Physiology (2002) 43; 91-98.
The intensity of the induction appears on the tracks 1 to 8 by way of spots more or less pronounced.
The samples of infiltrated tissues on which the treatments illustrated by track 9 of FIG. 3 were made, were carried out 3 days after the infiltration treatment.
as §3
That expression of the acidic PR1 and PR2 proteins is materialised by the intensity of the spots, which appear on the tracks 10, 11, 12, 13, and which are the result of the determination by immunodetection.

[5] = system: agronomically useful plants; test: Stimulation of natural defence reactions of plants by liquid compositions (general statements); format: in vivo; conditions: in practice
salicylic acid = test: Accumulation of total salicylic acid in infiltrated tissues; format: in vivo, Nicotiana tabacum; conditions: variety Bel3, tissues sampled 3 days after infiltration (FIG. 5)
From the text: as §1, §2

[6] = system: OMT activity (orthodiphenol-O-methyltransferases); test: OMT activity in infiltrated tobacco leaves; format: in vivo, Nicotiana tabacum; conditions: for stimulation of the OMT activity: 200 mg/l; for OMT activity relative to that obtained with H11-C2: 500 mg/l
From the text: Measurement was also made of the OMT activity induced by the compositions based on the fractions H11-C1 and H11-S.
For the measurement of that activity, procedure was as disclosed by Costet L., Dorey S., Fritig B. and Kauffmann S in the publication here above identified and published under the title: • “A pharmacological approach to test the diffusible signal activity of reactive oxygen intermediates in […] tobacco leaves”, in Plant Cell and Physiology (2002) 43; 91-98.
The latter show the stimulation of the OMT activity, expressed in pkat/g FP (i.e. in picokatal per gram of fresh product FP, in other words of fresh vegetable material), by infiltration with water as control (reference C), then with the compositions based on H11-C1 and H11-S, the plants treated being again the varieties NN and Bel3.
The OMT activity has also been measured after infiltration of the varieties NN and Bel3 with the same compositions.
In another line of tests, the varieties NN and Bel3 have been treated with the same inducing compositions presenting respectively the concentrations of 0.5 and then of 5, of 50, of 200 and of 500 mg/l in H11-S and H11-C and the OMT activity in the case of the varieties NN and Bel3 has been analysed.
FIGS. 8 and 9 show the values of stimulation of the OMT activity (expressed in pkat/g FP) respectively in the case of the varieties NN and Bel3.

laminarin sulfate [H11-S]
alkalinisation of the medium [1]: 0.3 pH units
induction of signalisation pathways [2]: induce the signalisation pathways of salicic acid and of ethylene
ratio of the concentrations (H11-C1 at 200 mg/l versus H11-S) giving the same accumulation of scopoletin (scopoletin): ≤ 30
fluorescence under U.V. light at the level of infiltrated tissues ([3]; 200 mg/l, infiltrated tissues): a blue fluorescence under U.V. light is observed
symptoms of chlorosis as a function of concentration ([3]; 0.5, 5, 20, 50, 200 and 1,000 mg/l, varieties NN and Bel3): the more the symptoms of chlorosis are severe
symptoms of the infiltrated tissues ([3]; aqueous composition 200 mg/l infiltrated into leaf mesophyl, varieties NN and Bel3): present a depigmentation
dose at which first symptoms of fluorescence under UV light are obtained ([3]; concentration series 0.5 to 1,000 mg/l): 50 mg/L
expression of acidic and alkaline isoforms of PR1, PR2, PR3 and PR5 proteins ([4]; 200 mg/l, varieties NN and Bel3, H11-S compared with H11-C1 (FIG. 1)): more important; also recorded: stronger
expression of the acidic PR1 protein ([4]; 200 mg/l, varieties NN and Bel3, tissues sampled 3 days after infiltration (FIG. 3)): highest expression
concentration from which acidic PR1 and PR2 proteins are detected ([4]; immunodetection, concentration series 0.5 to 1,000 mg/l, varieties NN and Bel3 (FIG. 7)): 5 to 20 mg/L
dosis at which the maximum response of expression of the PR proteins is reached ([4]; varieties NN and Bel3): 500 mg/L
concentration above which no better result is provided [5]: higher than 500 mg/l
ratio of the concentrations (H11-C1 at 200 mg/l versus H11-S) giving the same accumulation of salicylic acid (salicylic acid): ≤ 30
stimulation of the OMT activity ([6]; varieties NN and Bel3, compared among C, H11-C1, H11-C2, H11-C3, H11-S, H16 (FIG. 4)): clearly better
stimulation of the OMT activity ([6]; variety Bel3, H11-S versus H11-C1 (FIG. 2)): clearly more intense
stimulation of the OMT activity ([6]; variety NN, H11-S versus H11-C1 (FIG. 2)): similar
increase of OMT activity as a function of the concentration ([6]; 0.5, 5, 50, 200 and 500 mg/l, varieties NN and Bel3 (FIGS. 8 and 9)): much faster
OMT activity relative to that obtained with H11-C2 ([6]; variety Bel3): about ten
OMT activity relative to that obtained with H11-C2 ([6]; variety NN): about four
factor by which the concentration can be lower than that of H11-C1, H11-C2 and H11-C3 for a comparable OMT result ([6]; conclusion from FIG. 4): eight
dosis at which the maximum response of OMT activity is reached ([6]; varieties NN and Bel3): 500 mg/L
factor by which the concentration can be lower for OMT stimulation equal to H11-C1 at 200 mg/l ([6]; variety Bel3, forecast from FIG. 2): 8 to 9 times
